According to US5780472A, “Piperazine derivatives and methods for the preparation thereof and compositions containing the same” (Samjin Pharmaceuticazl Co., Ltd., priority 1995, dated 1998):
≈ marks a conversion by molar mass, not a printed value. Counter-ions that a name gives are not always drawn.

What was measured:
[1] = test system: L1210 (mouse leukemia cell); assay: In vitro antitumor effects against animal leukemia cells (dye exclusion assay), L1210; assay type: cell-based; conditions: 50% cell growth inhibition, 37° C., trypan blue; for IC50: Mus musculus, L1210, 48 h, read-out: ED50 (the source's name); for ED50: 48 hours, hydrochloride, 2880 min
Experimental: L1210(mouse leukemia cell)
(§1) B. Method of Experiment(Dye Exclusion Assay)
(§2) 2) Sample drugs diluted with log dose were added into the cells, and it were cultured at 37° C., for 48 hours, in […] incubater, and then viable cell number was measured, Viable cell number was measured with dye exclusion test using trypan blue.

[2] = test system: P388 (mouse lymphoid neoplasma cell); assay: In vitro antitumor effects against animal leukemia cells (dye exclusion assay), P388; assay type: cell-based; conditions: 50% cell growth inhibition, 37° C., trypan blue; for IC50: Mus musculus, P388, 48 h, read-out: ED50 (the source's name); for ED50: 48 hours, 2880 min
Experimental: P388 (mouse lymphoid neoplasma cell)
as §1, §2

[3] = test system: mouse leukemia P388 cells; assay: In vivo antitumor effects against mouse leukemia P388 cells; conditions: for T/C (%) etc.: days 1, 5, 9, median survival time; for antitumor effect in P388 mice: in words
Experimental: 1) Leukemia P388 cells being transfer-cultured succesively in DBA/2 mouse, were grafted i.p. into each mouse of a group comprising 8 mice of 6 week old BDFI mouse as the dose of 1×10^6 cells/0.1 ml.
2) Sample drugs were dissolved in PBS or suspended in 0.5% Tween 80, and then injected into abdominal cavity of mouse at each prescribed concentration on days 1, 5, 9, respectively.
3) With observation every day, survival times of tested mice were measured. Antitumor activities was determined in such a manner that the increasing ratio(T/C %) of average survival days of drug-treated groups compared with the control group was calculated using the mean survival times of each tested groups.
* Experimental Conditions for Mouse P388
(§3) Animal: BDFI mouse (8 mice/group)
Inoculum size: 10^6 cells/mouse
(§4) Treatment time: days 1, 5, 9
(§5) Parameter: median survival time

[4] = test system: 5 kinds of human solid cancer cell lines; assay: In vitro antitumor activity against 5 human solid cancer cell lines compared with cisplatin (SRB assay); assay type: cell-based; conditions: in words
Experimental: Antitumor activities of the compounds of present invention were tested. Antitumor activities of compounds of the present invention were tested in vitro against 5 kinds of human tumor cell lines and 2 kinds of leukemia tumor cell lines. The method of in vitro test is as follows.
B. Method of test(SRB Assay Method)
a. Human solid tumor cell lines, […](non-small lung cell), SKMEL-2(melanoma), HCT-15(colon), SKOV-3(ovarian), XF-498(CNS) were cultured at 37° C., in 5% CO2 incubater using the RPMI 1640 media containing 10% FBS, while they were transfer-cultured successively once or twice per week. Cell cultures were dissolved into the solution of 0.25% trypsin and 3 mM CDTA PBS(-) and then cells were separated from media which the cells were sticked on.
b. 5×10^3 -2×10^4 cells were added into each well of 96-well plate and cultured in 5% CO2 incubater, at 37° C., for 24 hours.
c. Each sample drugs was dissolved in a small quantity of DMSO, and diluted to concentrations prescribed in experiment with media, and then the final concentration of DMSO was controlled below 0.5%.
d. A medium of each well cultured for 24 hours as above b., was removed by aspiration. 200 μl of drug samples prepared in c. was added into each well and the wells were cultured for 48 hours. Tz(time zero) plates were collected at the point of time drugs were added.
e. After Tz plates and plates were treated with cell fixing by TCA of SRB assay method, staining of 0.4% SRB solution, washing with 1% acetic acid, OD values were measured at 520 nm, following elution of dye with 10 mM Tris solution.
e. If T≥Tz, cellular response function was calculated with 100×(T-Tz)/(C-Tz), and if T<Tz, with 100×(T-Tz)/Tz.

[5] = test system: L1210 and P388 mouse cancer cells; assay: In vitro antitumor activity against L1210 and P388 compared with mitomycin C (dye exclusion assay); assay type: cell-based; conditions: in words
Experimental: as §1
1) L-1210 and P388 cells that were cultured in RPMI 1640 media containing 10% FBS were regulated as the cell concentration of 1×10^6 cells/ml.
as §2
3) The concentration of sample compounds of 50% cell growth inhibition compared with standard group was determined as IC50.

B16 Melanoma = assay: In vivo antitumor activities against mouse solid tumor, B16 melanoma; conditions: for T/C (%) Etc.: days 1, 5, 9, median survival time; for antitumor activities in B16 mouse melanoma: in words
Experimental: BDF1 mouse was used in experiment while being successively transfer cultured in C57BL/6 mice by s.c.
1) After 1 g of tumor was added into cold balanced salt solution up to be 10 ml, it was homogenized (10:1,brei).
2) 0.5 ml Brei of the above 1) were grafted into each BDFI mouse by i.p.
3) Median survival time was measured, and the activity was determined in such a manner that if T/C was over 125%, it presented moderate activity, while if it is over 150%, it had significant activity.
* Experimental Conditions for Mouse B16 Melanoma.
as §3
Inoculum size: 10^5 cells/mouse
as §4, §5

ICR mice = assay: Acute toxicity test (LD50), Litchfield-Wilcoxon method; assay type: in vivo, mouse; parameters: unit not given here; conditions: male ICR mice, 14 days

| Structure (SMILES) | IC50 [1] [µg/mL] | IC50 [2] [µg/mL] | T/C (%) etc. ([3]; 50 mg/kg i.p.) [%] | T/C (%) etc. ([3]; 100 mg/kg i.p.) [%] | antitumor effect in P388 mice [3] | antitumor activities compared with cisplatin [4] | antitumor activities compared with mitomycin C [5] | ED50 [2] [µg/mL] | T/C (%) Etc. (B16 Melanoma; Dose 50 (unit not given) i.p.) [%] | T/C (%) Etc. (B16 Melanoma; Dose 100 (unit not given) i.p.) [%] | T/C (%) Etc. (B16 Melanoma; Dose 200 (unit not given) i.p.) [%] | antitumor activities in B16 mouse melanoma (B16 Melanoma) | LD50 (ICR mice; i.p.) | LD50 (ICR mice; p.o.) | ED50 [1] [µg/mL] | ED50 ([2]; hydrochloride) [µg/mL] |
| --- | --- | --- | --- | --- | --- | --- | --- | --- | --- | --- | --- | --- | --- | --- | --- | --- |
| CCc1cc(NC(=O)N2CCN(c3cc(C)cc(C)c3)CC2)c(OC)nc1C [Example 29, 1-[(5-ethyl-2-methoxy-6-methylpyrdin-3-yl)aminocarbonyl]-4-(3,5-dimethylphenyl)piperazine] | 0.4 (≈ 1.05 µM) | 0.5 (≈ 1.31 µM) | 136.4 | 190.9 | significant antitumor effect | superior antitumor activities to those of cisplatin | same or more excellent antitumor activities |  |  |  |  |  |  |  |  |  |
| CCc1cc(NC(=O)N2CCN(c3ccccc3OC)CC2)c(OC)nc1C [Example 1, 1-[(5-ethyl-2-methoxy-6-methylpyridin-3-yl)aminocarbonyl]-4-(2-methoxyphenyl)piperazine] | 1.6 (≈ 4.16 µM) |  | 109.1 | 134.6 | significant antitumor effect | superior antitumor activities to those of cisplatin |  | 0.6 (≈ 1.56 µM) |  |  |  |  |  |  |  |  |
| CCc1cc(NC(=O)N2CCN(c3cc(OC)cc(OC)c3)CC2)c(OC)nc1C [Example 6, 1-[(5-ethyl-2-methoxy-6-methylpyridin-3-yl)aminocarbonyl]-4-(3,5-dimethoxyphenyl)piperazine] | 0.6 (≈ 1.45 µM) | 0.3 (≈ 0.724 µM) | 133.3 | 183.3 | significant antitumor effect | superior antitumor activities to those of cisplatin | same or more excellent antitumor activities |  | 127.3 | 124.2 | 139.4 | significant antitumor activities | 248.5 | > 622 |  |  |
| COc1ccccc1N1CCN(C(=O)Nc2cc(C)c(C)nc2OC)CC1 [Example 108] | 0.8 (≈ 2.16 µM) | 0.9 (≈ 2.43 µM) |  |  |  | superior antitumor activities to those of cisplatin | same or more excellent antitumor activities |  |  |  |  |  | > 2,000 | > 3,110 |  |  |
| CCc1cc(NC(=O)N2CCN(c3cccc(Cl)c3)CC2)c(OC)nc1C [Example 149, 1-[(5-ethyl-2-methoxy-6-methylpyridin-3-yl)aminocarbonyl]-4-(3-chlorophenyl)piperazine salt of hydrochloride] |  |  |  |  |  | superior antitumor activities to those of cisplatin | same or more excellent antitumor activities |  |  |  |  |  | 410.5 |  | 0.9 |  |
| CCc1cc(NC(=O)N2CCN(c3ccccc3OC)CC2)c(OC)nc1C [Example 148, 1-[(5-ethyl-2-methoxy-6-methylpyridin-3-yl)aminocarbonyl]-4-[(2-methoxyphenyl)piperazine-2-yl]piperazine salt of hydrochloride] |  |  |  |  |  |  | same or more excellent antitumor activities |  |  |  |  |  | 425.3 |  | 1.5 | 1.3 |
| COc1cc(OC)cc(N2CCN(C(=O)Nc3cc(C)c(C)nc3OC)CC2)c1 [Example 118, 1-[(5,6-dimethyl-2-methoxypyridin-3-yl)aminocarbonyl]-4-(3,5-dimethoxyphenyl)piperazine] | 0.06 (≈ 0.15 µM) | 0.06 (≈ 0.15 µM) |  |  |  | superior antitumor activities to those of cisplatin | same or more excellent antitumor activities |  |  |  |  |  | 182.8 | 571.8 |  |  |
| CCc1cc(NC(=O)N2CCN(c3cccc(Cl)c3)CC2)c(OC)nc1C [Example 16, 1-[(5-ethyl-2-methoxy-6-methylpyridin-3-yl)aminocarbonyl]-4-(3-chlorophenyl)piperazine] | 1.8 (≈ 4.63 µM) | 1.6 (≈ 4.11 µM) | 113.6 | 131.8 | significant antitumor effect |  |  |  | 115.2 | 127.3 | 118.2 | significant antitumor activities |  |  |  |  |
| CCc1cc(NC(=O)N2CCN(c3cccc(OC(C)=O)c3)CC2)c(OC)nc1C [Example 41, 1-[(5-ethyl-2-methoxy-6-methylpyridin-3-yl)aminocarbonyl]-4-(3-acetoxyphenyl)piperazine] | 1.4 (≈ 3.39 µM) | 2 (≈ 4.85 µM) |  |  |  | superior antitumor activities to those of cisplatin | same or more excellent antitumor activities |  |  |  |  |  |  |  |  |  |
| CCc1cc(NC(=O)N2CCN(c3cc(OC)ccc3C)CC2)c(OC)nc1C [Example 48, 1-[(5-ethyl-2-methoxy-6-methylpyridin-3-yl)aminocarbonyl]-4-(5-methoxy-2-methylphenyl)piperazine] | 1.9 (≈ 4.77 µM) | 1.8 (≈ 4.52 µM) |  |  |  | superior antitumor activities to those of cisplatin | same or more excellent antitumor activities |  |  |  |  |  |  |  |  |  |
| CCc1cc(NC(=O)N2CCN(c3cc(Cl)ccc3OC)CC2)c(OC)nc1C [Example 49, 1-[(5-ethyl-2-methoxy-6-methylpyridin-3-yl)aminocarbonyl]-4-(5-chloro-2-methioxyphenyl)piperazine] | 1.3 (≈ 3.1 µM) | 0.6 (≈ 1.43 µM) |  |  |  | superior antitumor activities to those of cisplatin | same or more excellent antitumor activities |  |  |  |  |  |  |  |  |  |
